Assay results: ChEMBL document CHEMBL4354809, “p97: An Emerging Target for Cancer, Neurodegenerative Diseases, and Viral Infections” (J Med Chem, 2020)

Key:
[1] = target: T1, Transitional endoplasmic reticulum ATPase (Homo sapiens, UniProt P55072); experiment: Inhibition of p97 (unknown origin) expressed in Escherichia coli BL21 (DE3) pre-incubated for 10 mins before ATP addition and measured up to 120 mins measured by malachite green assay
[2] = target: ATP-dependent clpX-like chaperone, mitochondrial (Homo sapiens, UniProt O76031); experiment: Inhibition of ClpX (unknown origin) expressed in Escherichia coli BL21 (DE3) pre-incubated for 10 mins before ATP addition and measured up to 120 mins measured by malachite green assay
[3] = target: T1, Transitional endoplasmic reticulum ATPase; experiment: Inhibition of p97 (unknown origin) by ADP-Glo assay
[4] = target: T1, Transitional endoplasmic reticulum ATPase; experiment: Inhibition of p97 (unknown origin) assessed as reduction in ATPase activity
[5] = system: Panel NCI-60 (60 carcinoma cell lines); experiment: Growth inhibition of human NCI60 cells; format: functional, cell-based
[6] = target: T1, Transitional endoplasmic reticulum ATPase; experiment: Inhibition of human p97
[7] = system: Human betaherpesvirus 5; experiment: Antiviral activity against Human Cytomegalovirus; format: functional, organism-based
[8] = target: T1, Transitional endoplasmic reticulum ATPase; experiment: Inhibition of p97 in human HeLa cells assessed as reduction in p97-dependent UbG76V-GFP degradation incubated for 1 hr by […] reporter gene assay; format: cell-based
[9] = organism: Homo sapiens; experiment: Selectivity ratio of IC50 for inhibition of p97 (unknown origin) by malachite green assay to IC50 for inhibition of VPS4B (unknown origin) by malachite green assay
[10] = target: T2, Vacuolar protein sorting-associated protein 4B (Homo sapiens, UniProt O75351); experiment: Inhibition of VPS4B (unknown origin) by malachite green assay
T2 sequence (O75351 whole entry): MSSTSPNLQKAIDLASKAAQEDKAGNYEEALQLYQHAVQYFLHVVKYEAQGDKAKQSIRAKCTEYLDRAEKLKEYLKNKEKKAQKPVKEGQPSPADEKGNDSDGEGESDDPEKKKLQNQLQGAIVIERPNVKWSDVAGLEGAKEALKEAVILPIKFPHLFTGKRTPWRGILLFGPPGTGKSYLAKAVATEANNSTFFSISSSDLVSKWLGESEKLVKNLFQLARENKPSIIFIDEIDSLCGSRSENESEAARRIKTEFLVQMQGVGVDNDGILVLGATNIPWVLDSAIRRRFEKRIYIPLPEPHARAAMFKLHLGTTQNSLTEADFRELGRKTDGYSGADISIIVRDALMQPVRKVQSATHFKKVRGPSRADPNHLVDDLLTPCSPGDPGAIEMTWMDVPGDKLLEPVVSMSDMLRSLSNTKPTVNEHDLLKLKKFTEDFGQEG

[11] = target: T2, Vacuolar protein sorting-associated protein 4B; experiment: Inhibition of VPS4B (unknown origin) assessed as reduction in ATPase activity in presence of activating fragment of substrate CHMP1B
[12] = target: T1, Transitional endoplasmic reticulum ATPase; experiment: Inhibition of p97 (unknown origin) by malachite green assay
[13] = target: T1, Transitional endoplasmic reticulum ATPase; experiment: Inhibition of p97 in HEK293 cells co-expressing GFP and hemagglutinin assessed as reduction in p97-dependent ERAD pathway by immunoblotting analysis; format: cell-based
[14] = system: HCT-116; experiment: Antiproliferative activity against human HCT116 cells; format: functional, cell-based
[15] = target: T1, Transitional endoplasmic reticulum ATPase; experiment: Inhibition of GST-fused VCP (unknown origin) expressed in Escherichia coli BL21 star (DE3) pre-incubated for 60 mins before ATP addition and measured after 60 mins by kinase Glo-Plus reagent based assay
[16] = target: T1, Transitional endoplasmic reticulum ATPase; experiment: Binding affinity to p97 (unknown origin) by SPR assay
[17] = system: JeKo-1; experiment: Growth inhibition of human JeKo1 cells assessed as reduction in cell viability by MTT assay; format: functional, cell-based
[18] = target: T1, Transitional endoplasmic reticulum ATPase; experiment: Binding affinity to GST-tagged p97 (unknown origin) by CD spectroscopy

T1 sequence (P55072 whole entry): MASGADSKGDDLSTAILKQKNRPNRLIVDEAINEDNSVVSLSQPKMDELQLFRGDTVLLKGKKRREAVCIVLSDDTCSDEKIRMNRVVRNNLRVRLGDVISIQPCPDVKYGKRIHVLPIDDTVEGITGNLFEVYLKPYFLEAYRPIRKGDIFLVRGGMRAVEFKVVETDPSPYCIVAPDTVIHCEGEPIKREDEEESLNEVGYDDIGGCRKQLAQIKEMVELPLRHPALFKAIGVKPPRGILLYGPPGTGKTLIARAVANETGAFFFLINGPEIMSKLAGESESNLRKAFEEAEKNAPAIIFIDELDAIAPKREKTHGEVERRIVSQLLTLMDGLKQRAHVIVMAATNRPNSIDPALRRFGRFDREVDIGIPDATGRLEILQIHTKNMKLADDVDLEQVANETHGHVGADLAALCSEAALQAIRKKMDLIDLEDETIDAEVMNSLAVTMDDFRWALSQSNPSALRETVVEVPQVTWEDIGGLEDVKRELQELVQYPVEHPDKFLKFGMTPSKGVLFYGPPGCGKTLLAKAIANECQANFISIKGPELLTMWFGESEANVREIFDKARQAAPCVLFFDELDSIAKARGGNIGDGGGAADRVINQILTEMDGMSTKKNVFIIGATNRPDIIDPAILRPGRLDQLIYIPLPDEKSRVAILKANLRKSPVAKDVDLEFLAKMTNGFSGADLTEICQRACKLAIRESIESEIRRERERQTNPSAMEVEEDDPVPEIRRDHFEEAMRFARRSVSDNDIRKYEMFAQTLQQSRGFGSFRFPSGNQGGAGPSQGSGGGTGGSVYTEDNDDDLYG
ATP-dependent clpX-like chaperone, mitochondrial, sequence (O76031 whole entry): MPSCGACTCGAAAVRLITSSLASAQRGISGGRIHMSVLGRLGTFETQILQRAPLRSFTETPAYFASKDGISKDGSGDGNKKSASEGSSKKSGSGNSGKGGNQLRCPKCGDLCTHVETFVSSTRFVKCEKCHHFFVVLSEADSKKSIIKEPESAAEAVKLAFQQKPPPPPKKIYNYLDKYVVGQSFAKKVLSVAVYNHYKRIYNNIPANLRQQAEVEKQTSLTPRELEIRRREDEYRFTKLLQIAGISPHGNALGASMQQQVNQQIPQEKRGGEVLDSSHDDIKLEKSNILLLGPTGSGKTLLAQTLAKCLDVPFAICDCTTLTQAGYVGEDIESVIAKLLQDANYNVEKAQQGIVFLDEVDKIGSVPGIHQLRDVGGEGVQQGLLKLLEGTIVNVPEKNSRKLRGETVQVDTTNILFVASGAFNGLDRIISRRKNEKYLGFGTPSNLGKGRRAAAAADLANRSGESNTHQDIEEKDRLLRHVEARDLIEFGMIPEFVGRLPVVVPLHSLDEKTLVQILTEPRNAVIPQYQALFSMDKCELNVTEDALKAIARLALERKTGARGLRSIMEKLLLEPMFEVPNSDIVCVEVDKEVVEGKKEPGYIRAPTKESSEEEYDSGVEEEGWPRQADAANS

CC(=O)OCC1=C(C)C[C@H]([C@@H](C)[C@H]2CC[C@H]3[C@@H]4C[C@H]5O[C@]56[C@@H](O)C=CC(=O)[C@]6(C)[C@H]4CC[C@]23C)OC1=O was tested, and the IC50 [1] was 22000 nM and the IC50 [2] was 9500 nM.
In the case of CC(C)N1CCN(CCNC2CCN(c3cccc(-c4cc5cc(C(F)(F)F)ccc5[nH]4)c3)CC2)CC1, the IC50 [3] is reported as 4600 nM.
Compound [N-]=[N+]=Nc1cccc(-n2c(COc3ccc(CCCO)cc3)nnc2SC2CCCC2)c1 has an IC50 [4] of 1100 nM.
For CC(C)N1CCN(CCNC2CCN(c3cccc(-c4cc5cc(F)ccc5[nH]4)c3)CC2)CC1, the IC50 [5] was 316 to 2000 nM and the IC50 [6] was 20 to 70 nM.
In the case of Cc1cc(OCc2nnc(SC3CCCC3)n2-c2cccnc2)ccc1-c1ccc(S(C)(=O)=O)cc1, the IC50 [7] is reported as 130 nM.
In the case of Clc1ccccc1C(c1ccccc1)(c1ccccc1)n1ccnc1 [CLOTRIMAZOLE], the IC50 [8] is reported as 1400 nM.
Compound Fc1ccc(C(CCCNCC2CCc3[nH]c4ccc(F)cc4c3C2)c2ccc(F)cc2)cc1 (stereo not drawn) has a Ratio IC50 [9] of 10, an IC50 [10] of 710 nM and an IC50 [11] of 710 nM. The IC50 [12] was 7200 nM.
For CC(C)N1CCN(CCNC2CCN(c3cccc(-c4cc5cc(C#N)ccc5[nH]4)c3)CC2)CC1, the IC50 [3] was 44 nM.
Compound C[C@H]1CCC/C=C/C(=O)c2c(O)c(Cl)c(O)c(Cl)c2CC(=O)O1 has an IC50 [1] of 15300 nM and an IC50 [13] of 7900 nM.
In the case of O=C(CCl)Nc1cccc(NC2=NS(=O)(=O)c3ccccc32)c1, the IC50 [14] is reported as 3000 nM.
Compound Nc1nc2c(ncn2COC(CO)CO)c(=O)[nH]1 [GANCICLOVIR] has an IC50 [7] of 1300 nM.
For CC(C)N1CCN(CCNC2CCN(c3cccc(-c4cc5cc(C(=O)N(C)C)ccc5[nH]4)c3)CC2)CC1, the IC50 [3] was 31400 nM.
In the case of COc1ccc(C(=O)c2oc3ccccc3c2NC(C)=O)cc1, the IC50 [15] is reported as > 100000 nM.
[N-]=[N+]=Nc1cccc(OCc2nnc(SC3CCCC3)n2-c2cccnc2)c1 gave an IC50 [4] of 760 nM.
Work on CC1(C)C(N(O)C(=O)Nc2ccc(Cl)cc2)N(c2ccc(Cl)cc2)C(=O)N1CC(=O)N/N=C/C=C/c1ccc([N+](=O)[O-])o1 (stereo not drawn) yielded a Kd [16] of 5000 to 10000 nM and an IC50 [17] of 4000 nM.
Work on O=C(/C=C1\Nc2ccccc2C(=O)N2CCC[C@@H]12)/C=C/c1c[nH]c2ccc(I)cc12 yielded a Kd [18] of 7000 nM.
